Laboratory results published in ChEMBL document CHEMBL1201862, “PubChem BioAssay data set” (2004).
Active and inactive are the calls of the source.

Key:
Aminopeptidase N = biological target: T1, Aminopeptidase N (Plasmodium falciparum FcB1/Columbia, UniProt O96935); assay: malaria alanyl aminopeptidase activity blockers – biochemical, fluorogenic H-Leu-NHMec substrate, 1536-well (AID 1445); design: species or system Plasmodium falciparum 3D7, 3D7
T1 sequence (O96935 whole entry): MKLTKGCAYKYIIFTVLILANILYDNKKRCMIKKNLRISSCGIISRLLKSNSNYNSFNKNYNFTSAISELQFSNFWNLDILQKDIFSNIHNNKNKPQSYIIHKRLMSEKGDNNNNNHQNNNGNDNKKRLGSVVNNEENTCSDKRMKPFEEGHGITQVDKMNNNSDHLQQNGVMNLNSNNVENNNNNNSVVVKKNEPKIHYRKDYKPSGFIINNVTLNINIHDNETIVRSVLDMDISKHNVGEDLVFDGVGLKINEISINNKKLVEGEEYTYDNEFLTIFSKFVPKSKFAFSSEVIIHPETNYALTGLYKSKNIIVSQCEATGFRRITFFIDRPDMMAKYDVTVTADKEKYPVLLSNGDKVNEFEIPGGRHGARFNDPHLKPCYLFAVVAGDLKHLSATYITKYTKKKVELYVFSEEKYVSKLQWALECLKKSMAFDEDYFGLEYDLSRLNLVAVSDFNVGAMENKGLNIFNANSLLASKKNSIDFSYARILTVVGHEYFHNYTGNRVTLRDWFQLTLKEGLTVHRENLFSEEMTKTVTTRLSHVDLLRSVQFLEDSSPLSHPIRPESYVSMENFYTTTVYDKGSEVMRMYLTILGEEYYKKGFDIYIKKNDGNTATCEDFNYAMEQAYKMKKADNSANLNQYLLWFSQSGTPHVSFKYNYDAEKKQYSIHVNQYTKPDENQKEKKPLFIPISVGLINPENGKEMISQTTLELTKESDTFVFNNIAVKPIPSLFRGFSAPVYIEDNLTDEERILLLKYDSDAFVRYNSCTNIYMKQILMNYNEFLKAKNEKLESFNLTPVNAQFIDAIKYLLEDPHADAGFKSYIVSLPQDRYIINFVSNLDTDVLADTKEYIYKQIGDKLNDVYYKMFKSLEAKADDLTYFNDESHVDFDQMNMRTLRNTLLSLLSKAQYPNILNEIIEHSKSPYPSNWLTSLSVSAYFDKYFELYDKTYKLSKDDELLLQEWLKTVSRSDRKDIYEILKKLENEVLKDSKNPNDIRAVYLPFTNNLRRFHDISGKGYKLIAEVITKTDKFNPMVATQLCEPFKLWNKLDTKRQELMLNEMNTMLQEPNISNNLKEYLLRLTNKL

[1] = biological target: Voltage-dependent T-type calcium channel subunit alpha-1H (Homo sapiens, UniProt O95180); format: functional;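 also: channel activity triggered by adding a high calcium stimulation buffer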
Sequence of Voltage-dependent T-type calcium channel subunit alpha-1H (O95180 whole entry): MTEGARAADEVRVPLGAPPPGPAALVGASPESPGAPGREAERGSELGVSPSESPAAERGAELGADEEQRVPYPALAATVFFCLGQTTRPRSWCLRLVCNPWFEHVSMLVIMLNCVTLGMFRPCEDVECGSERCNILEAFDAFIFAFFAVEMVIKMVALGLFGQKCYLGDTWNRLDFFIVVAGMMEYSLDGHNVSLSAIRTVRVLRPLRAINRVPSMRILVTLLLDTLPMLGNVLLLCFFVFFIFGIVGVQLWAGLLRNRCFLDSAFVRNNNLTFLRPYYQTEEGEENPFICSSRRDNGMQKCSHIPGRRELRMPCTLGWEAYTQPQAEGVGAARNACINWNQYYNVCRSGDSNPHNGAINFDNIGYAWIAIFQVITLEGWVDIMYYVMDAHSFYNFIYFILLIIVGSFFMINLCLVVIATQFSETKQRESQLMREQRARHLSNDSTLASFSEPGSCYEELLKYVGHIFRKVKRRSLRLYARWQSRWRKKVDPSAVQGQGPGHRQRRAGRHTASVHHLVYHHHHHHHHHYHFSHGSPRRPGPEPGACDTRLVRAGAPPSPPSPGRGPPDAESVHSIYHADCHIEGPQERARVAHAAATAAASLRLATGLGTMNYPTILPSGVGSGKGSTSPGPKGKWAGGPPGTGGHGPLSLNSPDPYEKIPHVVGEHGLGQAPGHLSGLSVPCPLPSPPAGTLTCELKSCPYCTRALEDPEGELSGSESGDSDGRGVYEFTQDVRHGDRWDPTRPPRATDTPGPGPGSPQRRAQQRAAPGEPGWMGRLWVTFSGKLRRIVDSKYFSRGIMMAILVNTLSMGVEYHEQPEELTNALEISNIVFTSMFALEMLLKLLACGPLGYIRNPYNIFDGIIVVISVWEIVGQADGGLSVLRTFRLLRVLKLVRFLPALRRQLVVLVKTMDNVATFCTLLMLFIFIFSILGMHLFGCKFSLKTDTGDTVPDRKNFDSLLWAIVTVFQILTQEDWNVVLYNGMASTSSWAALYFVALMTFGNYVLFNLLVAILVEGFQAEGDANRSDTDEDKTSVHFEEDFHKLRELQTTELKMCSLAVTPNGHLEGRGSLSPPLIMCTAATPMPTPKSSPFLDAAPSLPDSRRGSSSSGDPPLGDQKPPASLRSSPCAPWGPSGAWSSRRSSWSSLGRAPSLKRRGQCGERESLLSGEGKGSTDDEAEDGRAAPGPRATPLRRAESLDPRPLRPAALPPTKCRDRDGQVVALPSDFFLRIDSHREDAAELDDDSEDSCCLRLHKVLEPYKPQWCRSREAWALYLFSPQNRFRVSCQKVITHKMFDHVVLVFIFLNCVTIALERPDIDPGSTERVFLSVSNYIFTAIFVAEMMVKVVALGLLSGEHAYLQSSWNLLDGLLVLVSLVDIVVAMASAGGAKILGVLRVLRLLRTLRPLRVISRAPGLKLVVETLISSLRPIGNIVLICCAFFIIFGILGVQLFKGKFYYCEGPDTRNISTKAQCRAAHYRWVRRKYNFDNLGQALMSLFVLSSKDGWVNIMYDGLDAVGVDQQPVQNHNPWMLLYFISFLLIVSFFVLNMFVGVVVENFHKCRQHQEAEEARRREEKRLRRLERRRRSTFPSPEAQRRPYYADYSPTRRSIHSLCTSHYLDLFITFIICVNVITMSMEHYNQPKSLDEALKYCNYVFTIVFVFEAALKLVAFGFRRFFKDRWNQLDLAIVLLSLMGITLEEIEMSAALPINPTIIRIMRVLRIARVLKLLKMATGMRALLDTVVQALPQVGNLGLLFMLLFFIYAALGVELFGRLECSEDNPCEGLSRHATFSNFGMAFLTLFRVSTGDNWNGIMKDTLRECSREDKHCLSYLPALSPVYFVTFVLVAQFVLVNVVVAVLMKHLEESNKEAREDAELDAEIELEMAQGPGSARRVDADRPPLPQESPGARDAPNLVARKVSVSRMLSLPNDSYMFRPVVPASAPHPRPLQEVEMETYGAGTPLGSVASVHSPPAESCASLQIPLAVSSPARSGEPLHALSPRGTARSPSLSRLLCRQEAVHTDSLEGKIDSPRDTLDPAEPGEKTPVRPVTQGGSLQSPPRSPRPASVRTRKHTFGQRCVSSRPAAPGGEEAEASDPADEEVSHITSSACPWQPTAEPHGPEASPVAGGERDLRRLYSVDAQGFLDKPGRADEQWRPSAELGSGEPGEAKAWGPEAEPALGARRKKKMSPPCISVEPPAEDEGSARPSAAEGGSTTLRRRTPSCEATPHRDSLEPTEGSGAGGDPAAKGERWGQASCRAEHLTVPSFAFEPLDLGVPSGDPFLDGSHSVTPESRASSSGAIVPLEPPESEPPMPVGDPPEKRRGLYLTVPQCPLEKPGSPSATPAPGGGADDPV

[2] = fluconazole-exposed Candida albicans growth modulators – fluorescence, retest, confirmation (AID 2467); format: functional, cell-based
[3] = NIH-3T3 fibroblast cytotoxicity, dose response, cytotoxicity control, cell-based, fluorescence, Alamar Blue, secondary assay (AID 2327); format: functional;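 also: NIH-3T3 mouse fibroblasts cultured with fluconazole at 8 µg/mL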
[4] = reduction of Shn3 3'UTR-driven luciferase in osteoblasts – cell-based, Clone20 osteoblasts, firefly luciferase, cherry-picked, dose response (AID 624132); format: functional;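 also: firefly luciferase luminescence from reporter carrying the Shn3 3'UTR in osteoblasts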
[5] = loss of viability in HepG2 cells – cell-based, CellTiter-Glo, cherry-picked, cytotoxicity control for Shn3 inhibitor project, dose response (AID 624134); format: functional
[6] = non-specific 3'UTR reporter inhibition in Clone20-Shn3RL – cell-based, Renilla luciferase, cherry-picked, counter-screen for Shn3 inhibitor project, dose response (AID 624133); format: functional
[7] = viability of uninfected HEp-2 cells – cell-based, HTS, cytotoxicity control for RSV inhibitor project, dose response (AID 2410); format: functional; settings: human respiratory syncytial virus
[8] = biological target: T2, High affinity choline transporter 1 (Homo sapiens, UniProt Q9GZV3); assay: human choline transporter blockers, potency – cell-based, 5-point CRC, membrane potential dye, dose response (AID 504840); format: functional
T2 sequence (Q9GZV3 whole entry): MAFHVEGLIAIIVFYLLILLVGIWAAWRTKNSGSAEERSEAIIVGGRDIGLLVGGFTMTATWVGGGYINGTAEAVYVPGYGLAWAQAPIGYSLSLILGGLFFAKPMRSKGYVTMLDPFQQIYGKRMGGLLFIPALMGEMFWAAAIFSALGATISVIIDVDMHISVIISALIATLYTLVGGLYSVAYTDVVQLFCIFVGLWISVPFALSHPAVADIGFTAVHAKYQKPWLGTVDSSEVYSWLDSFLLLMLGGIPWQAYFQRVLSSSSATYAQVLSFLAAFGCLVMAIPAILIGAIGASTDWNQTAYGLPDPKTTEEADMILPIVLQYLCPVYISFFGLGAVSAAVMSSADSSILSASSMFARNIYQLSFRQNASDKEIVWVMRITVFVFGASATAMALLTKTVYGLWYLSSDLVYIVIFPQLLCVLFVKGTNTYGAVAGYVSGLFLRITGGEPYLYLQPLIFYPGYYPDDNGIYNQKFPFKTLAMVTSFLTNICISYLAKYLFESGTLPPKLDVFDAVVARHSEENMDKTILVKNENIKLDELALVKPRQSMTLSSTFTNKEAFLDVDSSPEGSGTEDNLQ

[9] = biological target: T3, Ubiquitin-conjugating enzyme E2 N (Homo sapiens, UniProt P61088); format: functional;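 also: Dose-response confirmation in a TR-FRET assay detecting UBC13-driven polyubiquitin chain formation, inhibition measured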
T3 sequence (P61088 whole entry): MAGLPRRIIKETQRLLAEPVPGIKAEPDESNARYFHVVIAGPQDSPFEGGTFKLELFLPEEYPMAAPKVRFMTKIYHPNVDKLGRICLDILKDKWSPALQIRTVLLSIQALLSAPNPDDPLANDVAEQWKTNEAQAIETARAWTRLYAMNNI

[10] = biological target: T4, Corticotropin-releasing factor receptor 2/Corticotropin-releasing factor-binding protein (Homo sapiens, UniProt P24387+Q13324); assay: activators of CRF receptor 2 with binding protein – uHTS hits, confirmation (AID 602473); format: functional; settings: read-out: EC50_Mean
T4 sequence (Q13324 whole entry): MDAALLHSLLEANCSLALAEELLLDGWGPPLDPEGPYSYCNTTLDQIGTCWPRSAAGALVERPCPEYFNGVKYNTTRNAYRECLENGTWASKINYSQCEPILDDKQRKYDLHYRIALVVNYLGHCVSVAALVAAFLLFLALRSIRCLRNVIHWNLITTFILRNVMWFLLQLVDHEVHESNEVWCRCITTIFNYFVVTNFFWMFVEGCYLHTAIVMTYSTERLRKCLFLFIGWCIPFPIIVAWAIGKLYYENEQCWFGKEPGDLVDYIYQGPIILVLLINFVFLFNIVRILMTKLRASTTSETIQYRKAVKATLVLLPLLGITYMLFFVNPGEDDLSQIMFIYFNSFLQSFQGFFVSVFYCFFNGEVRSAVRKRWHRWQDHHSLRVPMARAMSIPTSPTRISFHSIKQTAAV
T4 sequence (P24387 whole entry): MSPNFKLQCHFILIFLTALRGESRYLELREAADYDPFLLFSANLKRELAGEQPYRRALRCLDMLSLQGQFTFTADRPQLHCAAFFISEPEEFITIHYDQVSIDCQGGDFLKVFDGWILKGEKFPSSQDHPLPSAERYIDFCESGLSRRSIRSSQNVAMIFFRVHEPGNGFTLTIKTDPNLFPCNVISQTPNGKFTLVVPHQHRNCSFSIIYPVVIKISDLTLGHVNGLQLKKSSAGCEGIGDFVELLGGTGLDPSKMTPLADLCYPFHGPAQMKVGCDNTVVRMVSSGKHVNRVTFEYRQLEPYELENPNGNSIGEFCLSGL

[11] = biological target: T4, Corticotropin-releasing factor receptor 2/Corticotropin-releasing factor-binding protein; assay: Dose Response confirmation of uHTS hits for small molecule antagonists of the CRF-binding protein and CRF-R2 receptor complex.; format: functional; settings: read-out: IC50_Mean
[12] = luciferase reporter signal suppression in cells – H4 neuroglioma cells, luminescence, dose response (AID 1990); format: functional, cell-based
[13] = biological target: T5, Heat shock factor protein 1 (Mus musculus, UniProt P38532); assay: enhancement of HSF1-driven luciferase signal – cell-based, NIH3T3, luminescence, dose retest, confirmation (AID 435004); format: functional;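 also: stress induced by proteasome inhibitor MG132 added 30 min after compound; luciferase reporter driven by HSF1 response element in NIH3T3 cells; actives raise luminescence as potentiators of the MG132 stress response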
T5 sequence (P38532 whole entry): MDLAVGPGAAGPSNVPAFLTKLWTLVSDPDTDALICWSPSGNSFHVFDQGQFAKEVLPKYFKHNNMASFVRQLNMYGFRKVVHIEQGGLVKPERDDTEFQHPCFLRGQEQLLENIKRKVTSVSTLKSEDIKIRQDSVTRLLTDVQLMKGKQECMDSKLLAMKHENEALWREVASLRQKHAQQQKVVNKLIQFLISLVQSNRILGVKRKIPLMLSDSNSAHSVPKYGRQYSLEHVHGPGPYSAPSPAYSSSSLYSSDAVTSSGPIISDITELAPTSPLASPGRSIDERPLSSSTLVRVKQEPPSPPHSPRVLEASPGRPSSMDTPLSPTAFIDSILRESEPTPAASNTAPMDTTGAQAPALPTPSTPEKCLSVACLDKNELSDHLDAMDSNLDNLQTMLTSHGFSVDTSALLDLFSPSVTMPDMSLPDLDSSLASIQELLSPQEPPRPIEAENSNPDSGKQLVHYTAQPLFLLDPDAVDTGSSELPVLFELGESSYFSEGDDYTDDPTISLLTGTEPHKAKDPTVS

[14] = alpha-synuclein stem-loop luciferase translation blockers – H4 neuroglioma cells, luminescence, confirmation (AID 1988); format: functional, cell-based
[15] = Luminescence Cell-Based Dose Response HTS to Identify Inhibitors of 5'UTR Stem-Loop Driven Prion Protein mRNA Translation in H4 Neuroglioblastoma Cells. [Related pubchem assays: 1827 (Project Summary), 1813 (Primary HTS)]; format: functional

Cc1noc(NS(=O)(=O)c2ccc(NC(=O)C(CC(C)C)N3C(=O)c4ccccc4C3=O)cc2)c1C (configuration not stated)
IC50 (Aminopeptidase N): 7.56 µM (active)

O=C1CC(c2nc3ccccc3[nH]2)CN1c1cccc(C(F)(F)F)c1 (configuration not stated)
EC50 [1]: 8.89 µM (active)

CCN(CC)C(=O)Cn1c(=O)n(-c2ccccc2)c(=O)c2c3c(sc21)CCC3
IC50 (Aminopeptidase N): 51.2 µM (active) | EC50 [2]: > 38 µM (not active) | EC50 [3]: > 160 µM (inactive)

NS(=O)(=O)c1ccc(CCNCc2cc(Br)ccc2OCc2ccccc2)cc1
AC50 [4]: 2.92 µM (active) | AC50 [5]: 53.7 µM (active) | AC50 [6]: 5.96 µM (active)

COc1ccc(OCC(O)CNCCOc2ccccc2OC)c(C(C)(C)C)c1 (configuration not stated)
AC50 [4]: 11.6 µM (active) | AC50 [5]: 30.7 µM (active) | CC50 [7]: 14.7 µM (active) | AC50 [6]: 19.6 µM (active)

O=C(Cc1c[nH]c2ccccc12)OCCOC(=O)Cc1c[nH]c2ccccc12
EC50 [1]: 4.77 µM (active)

O=C(CSc1nnc(-c2ccncc2)n1Cc1ccco1)c1ccc(Cl)cc1
IC50 [8]: 1.91 µM (active)

CCc1ccc(N(C(=O)c2snc(C(N)=O)c2N)C(C(=O)NCC2CCCO2)c2ccco2)cc1 (configuration not stated)
IC50 [9]: > 20 µM (inactive)

COC(=O)c1ccccc1NC(=O)c1cccc(NC(=O)c2ccc(Br)o2)c1C
EC50 [1]: 5.7 µM (active)

COc1cccc(-c2csc(N3CCN(C(=O)NC45CC6CC(CC(C6)C4)C5)CC3)n2)c1
EC50 [1]: 5.32 µM (active)

CC(=O)NC(c1ccco1)c1cc(Cl)c2ccccc2c1O (configuration not stated)
IC50 [9]: > 20 µM (inactive)

Cc1ccc(C)c(NC(=O)C2C(c3ccccc3)C2(Cl)Cl)c1 (configuration not stated)
EC50 [1]: 0.968 µM (active)

Cc1ccc(-c2nnn(CC(=O)N(c3ccccc3F)C(C(=O)NCC3CCCO3)c3c[nH]c4ccccc34)n2)cc1 (configuration not stated)
EC50 [1]: 4 µM (active)

CN(C(=S)NC(=O)CCCOc1ccc(Cl)cc1Cl)c1ccccc1
EC50 [1]: 4.13 µM (active)

Cc1ccc(NC(=O)CSc2nccn2Cc2ccccc2)cc1C
EC50 [1]: 2.74 µM (active)

CCc1nn2c(NCCOC)cc(C)nc2c1-c1ccc(F)cc1
IC50 [8]: 14.5 µM (active)

CCCNS(=O)(=O)c1cccc(C(=O)NC2CCCc3ccccc32)c1 (configuration not stated)
EC50 [10]: > 53 µM (inactive) | IC50 [11]: > 47.1 µM (inactive) | IC50 [8]: 13.5 µM (active)

CN(C)Cc1c(O)ccc2c3c(c(=O)oc12)CCCCC3
IC50 (Aminopeptidase N): 44.5 µM (active)

C=C1CC2(OC1=O)c1ccccc1CCc1ccccc12
AC50 [4]: 1.28 µM (active) | AC50 [5]: 11.4 µM (active) | AC50 [6]: 5.67 µM (active)

CN(CCOc1ccc(Cl)cc1)C(=O)c1cccc(S(=O)(=O)N2CCN(Cc3ccccc3)CC2)c1
AC50 [4]: 2.29 µM (active) | AC50 [5]: > 70 µM (inactive) | AC50 [6]: 3.57 µM (active)

CC(C)CC(/C(O)=C(\C#N)c1nc2ccccc2[nH]1)N1C(=O)c2ccccc2C1=O (configuration not stated)
EC50 [12]: > 120 µM (not active) | EC50 [1]: 14.8 µM (active) | EC50 [13]: > 260 µM (inactive) | CC50 [7]: 21 µM (active) | EC50 [14]: 12.3 µM (active) | EC50 [15]: > 120 µM (not active)

Cc1ccccc1-n1c(C)cc(/C=N/NC(=O)c2ccc(CN3CCOCC3)cc2)c1C
IC50 [8]: 7.94 µM (active)

CN(C)C1(C/N=C/c2cc(Cl)cc([N+](=O)[O-])c2O)CCCCC1
IC50 [8]: 14.5 µM (active)

CC(C)(C)OC(=O)[C@H](Cc1ccccc1)NC(=O)c1nc[nH]c1C(=O)N[C@@H](CCCCN)C(=O)OC(C)(C)C
IC50 [9]: > 20 µM (inactive)
